Data from ChEMBL document CHEMBL3885861, “Open TG-GATES”.

Species on record: Rattus norvegicus
Test: Open TG-GATES - Regimen: Single
Assay type: toxicity, organism-based, Sprague-Dawley
Design: regimen Single, gender Male, age 6 weeks
Conditions: in vivo, po, route gavage; for gamma-GTP / ALP / ALT / AST / BUN / CRE / Ca / Cl / DBIL / GLC / IP / K / LDH / Na / PL / RALB / TBIL / TG / TP: tissue Plasma; for APTT / Bas / Eos / Fbg / Hb / Ht / Lym / MCH / MCV / Mono / Neu / PT / Plat / RBC / Ret / WBC: tissue Blood; for KIDNEY_L / KIDNEY_R / KIDNEY_TOTAL: tissue Kidney; for LIVER: tissue Liver
[1] = 100 mg/kg, 3 h, dose level Middle
[2] = 100 mg/kg, 6 h, dose level Middle
[3] = 100 mg/kg, 9 h, dose level Middle
[4] = 100 mg/kg, 24 h, dose level Middle

For `NC(=O)N1c2ccccc2C=Cc2ccccc21` [CARBAMAZEPINE], the gamma-GTP (30 mg/kg, 24 h, dose level Low) was 0.8 IU/L, the TERMINAL_BW [1] was 216.3 g and the APTT [1] was 19.3 s. The Bas [1] was 0%, the Eos [1] was 1.2% and the Fbg [1] was 209.4 mg/dL. It also gave a Hb [1] of 13.2 g/dL, a Ht [1] of 38.8% and a Lym [1] of 77.4%. The MCH [1] was 21.3 pg, the MCV [1] was 62.7 fL and the Mono [1] was 2.8%. For the same compound, the Neu [1] was 17.2%, the PT [1] was 12.4 s and the Plat [1] was 121.8 x10_4/uL. It also gave an RBC [1] of 619 x10_4/ul, a Ret [1] of 7.2% and a WBC [1] of 96 x10_2/uL. The KIDNEY_L [1] was 0.9 g, the KIDNEY_R [1] was 0.9 g and the KIDNEY_TOTAL [1] was 1.9 g. The LIVER [1] was 9.8 g, the ALP [1] was 792.4 IU/L and the ALT [1] was 35.8 IU/L. For the same compound, the AST [1] was 63.8 IU/L, the BUN [1] was 9.2 mg/dL and the CRE [1] was 0.4 mg/dL. For the same compound, the Ca [1] was 10.4 mg/dL, the Cl [1] was 102 meq/L and the DBIL [1] was 0.076 mg/dL. The GLC [1] was 190 mg/dL, the IP [1] was 9.9 mg/dL and the K [1] was 3.8 meq/L. For the same compound, the LDH [1] was 202 IU/L, the Na [1] was 140.6 meq/L and the PL [1] was 152.4 mg/dL. The RALB [1] was 3.3 g/dL, the TBIL [1] was 0.1 mg/dL and the TG [1] was 62 mg/dL. It also gave a TP [1] of 5.5 g/dL, a gamma-GTP [1] of 1 IU/L and a TERMINAL_BW [2] of 210.4 g. The APTT [2] was 20.3 s, the Bas [2] was 0% and the Eos [2] was 1%. For the same compound, the Fbg [2] was 210 mg/dL, the Hb [2] was 13.2 g/dL and the Ht [2] was 38.7%. For the same compound, the Lym [2] was 80.4%, the MCH [2] was 20.8 pg and the MCV [2] was 61.1 fL. It also gave a Mono [2] of 2.6%, a Neu [2] of 14.8% and a PT [2] of 12.8 s. The Plat [2] was 121.9 x10_4/uL, the RBC [2] was 633.2 x10_4/ul and the Ret [2] was 6.5%. The WBC [2] was 95.7 x10_2/uL, the KIDNEY_L [2] was 0.9 g and the KIDNEY_R [2] was 0.9 g. It also gave a KIDNEY_TOTAL [2] of 1.8 g, an LIVER [2] of 9.1 g and an ALP [2] of 803.4 IU/L. The ALT [2] was 30.8 IU/L, the AST [2] was 60.4 IU/L and the BUN [2] was 9.4 mg/dL. For the same compound, the CRE [2] was 0.4 mg/dL, the Ca [2] was 10.6 mg/dL and the Cl [2] was 102.4 meq/L. The DBIL [2] was 0.084 mg/dL, the GLC [2] was 190.6 mg/dL and the IP [2] was 9.4 mg/dL. For the same compound, the K [2] was 3.8 meq/L, the LDH [2] was 175.2 IU/L and the Na [2] was 140.8 meq/L. It also gave a PL [2] of 142 mg/dL, an RALB [2] of 3.4 g/dL and a TBIL [2] of 0.1 mg/dL. The TG [2] was 58.4 mg/dL, the TP [2] was 5.6 g/dL and the gamma-GTP [2] was 0.6 IU/L. For the same compound, the TERMINAL_BW [3] was 211 g, the APTT [3] was 18.6 s and the Bas [3] was 0%. For the same compound, the Eos [3] was 1%, the Fbg [3] was 204.6 mg/dL and the Hb [3] was 13.3 g/dL. For the same compound, the Ht [3] was 38.7%, the Lym [3] was 81.4% and the MCH [3] was 21.3 pg. For the same compound, the MCV [3] was 61.9 fL, the Mono [3] was 2.4% and the Neu [3] was 14.8%. It also gave a PT [3] of 13.2 s, a Plat [3] of 120.7 x10_4/uL and an RBC [3] of 625.2 x10_4/ul. The Ret [3] was 6.4%, the WBC [3] was 91.7 x10_2/uL and the KIDNEY_L [3] was 1 g. For the same compound, the KIDNEY_R [3] was 1 g, the KIDNEY_TOTAL [3] was 2 g and the LIVER [3] was 8.6 g. For the same compound, the ALP [3] was 828.4 IU/L, the ALT [3] was 25.2 IU/L and the AST [3] was 57.6 IU/L. For the same compound, the BUN [3] was 9.6 mg/dL, the CRE [3] was 0.3 mg/dL and the Ca [3] was 10.3 mg/dL. For the same compound, the Cl [3] was 101.6 meq/L, the DBIL [3] was 0.064 mg/dL and the GLC [3] was 197 mg/dL. For the same compound, the IP [3] was 10.1 mg/dL, the K [3] was 3.7 meq/L and the LDH [3] was 176.2 IU/L. It also gave a Na [3] of 140.2 meq/L, a PL [3] of 133.2 mg/dL and an RALB [3] of 3.4 g/dL. For the same compound, the TBIL [3] was 0.1 mg/dL, the TG [3] was 45.6 mg/dL and the TP [3] was 5.4 g/dL. The gamma-GTP [3] was 0.8 IU/L, the TERMINAL_BW [4] was 226.1 g and the APTT [4] was 20.2 s. The Bas [4] was 0%, the Eos [4] was 0.8% and the Fbg [4] was 211.6 mg/dL. For the same compound, the Hb [4] was 13.3 g/dL, the Ht [4] was 39.4% and the Lym [4] was 80%. It also gave an MCH [4] of 21.1 pg, an MCV [4] of 62.7 fL and a Mono [4] of 2.8%. For the same compound, the Neu [4] was 15.6%, the PT [4] was 12.2 s and the Plat [4] was 123.8 x10_4/uL. For the same compound, the RBC [4] was 629 x10_4/ul, the Ret [4] was 5.9% and the WBC [4] was 88.7 x10_2/uL. It also gave a KIDNEY_L [4] of 1 g, a KIDNEY_R [4] of 1.1 g and a KIDNEY_TOTAL [4] of 2.1 g. The LIVER [4] was 11.4 g, the ALP [4] was 820.6 IU/L and the ALT [4] was 33.8 IU/L. It also gave an AST [4] of 66.4 IU/L, a BUN [4] of 18.4 mg/dL and a CRE [4] of 0.4 mg/dL. For the same compound, the Ca [4] was 10.6 mg/dL, the Cl [4] was 103.2 meq/L and the DBIL [4] was 0.1 mg/dL. The GLC [4] was 199 mg/dL, the IP [4] was 7.4 mg/dL and the K [4] was 4.3 meq/L. The LDH [4] was 215 IU/L, the Na [4] was 140.2 meq/L and the PL [4] was 147 mg/dL. It also gave an RALB [4] of 3.3 g/dL, a TBIL [4] of 0.2 mg/dL and a TP [4] of 5.5 g/dL. The gamma-GTP [4] was 1 IU/L.
